From PMC10700596 (Nature Communications, 2023)
Where “and” joins values, the source holds several entries; their conditions need not be identical. Identical values can stand only once. Like-named read-outs stand apart in the source and are kept apart here.

Key:
[1] = system: mice; type: in vivo; set-up: Paw Thickness / Paw thickness AVG 30 / Paw thickness AVG 60 / Paw thickness AVG 120: unit not given here; details: for Paw Thickness: duplicate readings; for Paw thickness %BL CARR: used for Figure 3E
[2] = biological target: IKK-beta (Homo sapiens, UniProt O14920); test: biochemical; type: binding; details: 10000 nM; read-out: Percent Control
[3] = biological target: T1, JAK2(JH1domain-catalytic) (Homo sapiens, UniProt O60674); test: KINOMEscan; type: binding
T1 construct: JAK2(JH1domain-catalytic); purchased Eurofins DiscoverX KINOMEscan (scanEDGE, 97 kinases)

[4] = 30 min, Carrageenan 30 µg, Group Average of 5 mice
[5] = 30 min, Carrageenan 30 µg, individual mouse
[6] = 60 min, Carrageenan 30 µg, Group Average of 5 mice
[7] = 60 min, Carrageenan 30 µg, individual mouse
[8] = 120 min, Carrageenan 30 µg, Group Average of 5 mice
[9] = 120 min, Carrageenan 30 µg, individual mouse
[10] = 180 min, Carrageenan 30 µg, Group Average of 5 mice
[11] = 180 min, Carrageenan 30 µg, individual mouse
[12] = 24 hours, Carrageenan 30 µg, Group Average of 5 mice
[13] = 24 hours, Carrageenan 30 µg, individual mouse

T1 sequence (O60674 810-1132 limits assumed): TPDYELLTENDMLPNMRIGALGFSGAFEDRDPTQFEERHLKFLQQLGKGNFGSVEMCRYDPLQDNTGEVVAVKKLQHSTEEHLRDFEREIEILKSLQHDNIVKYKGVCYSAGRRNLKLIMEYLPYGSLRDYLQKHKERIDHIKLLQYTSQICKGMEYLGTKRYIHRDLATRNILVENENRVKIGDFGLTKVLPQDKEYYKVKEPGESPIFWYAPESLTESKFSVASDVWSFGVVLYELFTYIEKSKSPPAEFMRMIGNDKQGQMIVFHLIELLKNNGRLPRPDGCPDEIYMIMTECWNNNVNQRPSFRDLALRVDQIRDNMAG
Chain of IKK-beta (O14920 whole entry): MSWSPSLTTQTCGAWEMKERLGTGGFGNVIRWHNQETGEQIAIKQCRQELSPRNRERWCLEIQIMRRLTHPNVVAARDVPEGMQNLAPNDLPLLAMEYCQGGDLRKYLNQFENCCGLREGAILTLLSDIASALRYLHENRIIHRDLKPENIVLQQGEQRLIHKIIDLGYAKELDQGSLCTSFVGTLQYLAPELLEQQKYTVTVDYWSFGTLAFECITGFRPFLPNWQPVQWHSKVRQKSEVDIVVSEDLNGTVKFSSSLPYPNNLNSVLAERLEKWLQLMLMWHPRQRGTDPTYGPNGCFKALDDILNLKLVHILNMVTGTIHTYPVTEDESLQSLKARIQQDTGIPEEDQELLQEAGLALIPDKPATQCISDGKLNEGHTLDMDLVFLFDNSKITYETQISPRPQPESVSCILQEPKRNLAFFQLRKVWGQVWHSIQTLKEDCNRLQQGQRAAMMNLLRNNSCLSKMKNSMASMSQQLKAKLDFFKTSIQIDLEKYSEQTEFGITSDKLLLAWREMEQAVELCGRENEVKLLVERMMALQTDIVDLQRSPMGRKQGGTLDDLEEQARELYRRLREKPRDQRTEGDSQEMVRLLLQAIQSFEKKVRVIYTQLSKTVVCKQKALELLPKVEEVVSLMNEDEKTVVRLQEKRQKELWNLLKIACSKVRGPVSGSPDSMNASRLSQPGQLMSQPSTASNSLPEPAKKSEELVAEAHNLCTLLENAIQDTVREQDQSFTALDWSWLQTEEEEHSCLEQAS

## O=C([O-])C1CCC2(CC1)CC(Nc1ncnc3[nH]c4c(F)cccc4c13)C2.[Na+] (stereo not shown) [Compound 77, [Na+].[O-]C(=O)C1CCC2(CC(C2)NC=3N=CN=C4NC=5C(F)=CC=CC5C34)CC1]
[1]; 30 mg/kg i.p., one day after carrageenan
  effect on carrageenan-induced paw edema: significantly reduced
[1]; [4]
  Paw thickness %BL CARR, Group Average: 92.2% and 96.7%
  Paw thickness %Baseline, Group Average: 118.7% and 118.1%
  Paw thickness AVG 30, Group Average: 2.0
[1]; [5]
  Paw thickness %Baseline: 122.7% and 124.6% and 120.5% and 111.5% and 114.1% and 116.5% and 122.2% and 107.4% and 119.7% and 124.9%
  Paw thickness AVG 30: 2.0 and 2.2 and 2.1 and 1.9 and 1.8
  Paw Thickness: 1.9 and 2.04 and 2.2 and 2.1 and 2.14 and 2.06 and 1.98 and 2.08 and 1.95 and 1.77 and 1.88 and 2 and 2.13 and 2.02
  Paw thickness %BL CARR: 89.5% and 101.4% and 91.7% and 92.1% and 86.4% and 102.3% and 101.6% and 84.9% and 96.7% and 98.1%
[1]; [6]
  Paw thickness %BL CARR, Group Average: 91.8% and 95.5%
  Paw thickness %Baseline, Group Average: 118.2% and 116.8%
  Paw thickness AVG 60, Group Average: 2.0
[1]; [7]
  Paw thickness %Baseline: 124.6% and 118.8% and 118.2% and 112.4% and 117.1% and 109.8% and 115.0% and 114.7% and 118.3% and 126.1%
  Paw thickness AVG 60: 2.0 and 2.1 and 1.9
  Paw Thickness: 2.1 and 1.9 and 2 and 2.02 and 1.97 and 1.98 and 2.05 and 2.09 and 2.2
  Paw thickness %BL CARR: 90.9% and 96.7% and 89.9% and 92.8% and 88.6% and 96.4% and 95.6% and 90.7% and 99.1%
[1]; [8]
  Paw thickness %BL CARR, Group Average: 89.1% and 94.8%
  Paw thickness %Baseline, Group Average: 114.9% and 115.9%
  Paw thickness AVG 120, Group Average: 2.0
[1]; [9]
  Paw thickness %Baseline: 126.2% and 111.6% and 112.4% and 111.0% and 113.2% and 111.3% and 115.8% and 115.9% and 114.2% and 122.2%
  Paw thickness AVG 120: 2.0 and 1.9 and 2.1
  Paw Thickness: 2 and 2.05 and 1.9 and 1.95 and 2.04 and 2.1 and 2.07 and 1.91 and 2.03 and 1.94 and 1.97
  Paw thickness %BL CARR: 92.0% and 90.8% and 85.5% and 91.6% and 85.7% and 97.7% and 96.3% and 92.3% and 96.0%
[1]; [10]
  Paw thickness %BL CARR, Group Average: 89.9% and 92.7%
  Paw thickness %Baseline, Group Average: 115.8% and 113.3%
  Paw thickness AVG 180, Group Average: 2.0
[1]; [11]
  Paw thickness %Baseline: 125.5% and 114.5% and 111.0% and 112.4% and 115.6% and 112.7% and 106.9% and 111.8% and 115.9% and 118.9%
  Paw thickness AVG 180: 2.0 and 1.9
  Paw Thickness: 2.03 and 2 and 1.95 and 1.9 and 2.09 and 2.02 and 1.91 and 1.99 and 1.96
  Paw thickness %BL CARR: 91.6% and 93.2% and 84.4% and 92.8% and 87.5% and 99.0% and 88.9% and 88.4% and 93.7% and 93.4%
[1]; [12]
  Paw thickness %BL CARR, Group Average: 85.7% and 94.0%
  Paw thickness %Baseline, Group Average: 110.4% and 114.8%
  Paw thickness AVG 24h, Group Average: 1.9 and 2.0
[1]; [13]
  Paw thickness %Baseline: 118.4% and 111.0% and 109.2% and 105.9% and 107.4% and 115.6% and 114.7% and 114.5% and 120.1%
  Paw thickness AVG 24h: 1.9 and 1.8 and 2.0
  Paw Thickness: 1.9 (2×) and 1.83 and 2 and 1.92 and 1.87 and 1.84 and 1.8 and 1.85 and 1.93 and 1.95 (2×)
  Paw thickness %BL CARR: 86.4% and 90.3% and 83.1% and 87.4% and 81.3% and 101.5% and 90.8% and 90.7% and 92.5% and 94.3%

## O=C(O)C1CCC2(CC1)CC(Nc1ncnc3[nH]c4c(F)cccc4c13)C2 (stereo not shown) [Compound 74, OC(=O)C1CCC2(CC(C2)NC=3N=CN=C4NC=5C(F)=CC=CC5C34)CC1]
[2]
  remaining activity at 10 µM: 3.2%
[3]; 10000 nM, read-out: Percent Control
  remaining binding at 10 µM: 0%
[3]; JAK2, [Compound] 0.001 nM
  Signal (qPCR): 2.42e-6 and 2.15e-6
[3]; JAK2, [Compound] 0.01 nM
  Signal (qPCR): 2.35e-6 and 2.44e-6
[3]; JAK2, [Compound] 0.169 nM
  Signal (qPCR): 2.62e-6 and 2.24e-6
[3]; JAK2, [Compound] 0.508 nM
  Signal (qPCR): 2.26e-6 and 2.31e-6
[3]; JAK2, [Compound] 1.52 nM
  Signal (qPCR): 2.56e-6 and 2.32e-6
[3]; JAK2, [Compound] 13.7 nM
  Signal (qPCR): 2.33e-6 and 2.17e-6
[3]; JAK2, [Compound] 41.2 nM
  Signal (qPCR): 2.15e-6 and 2.16e-6
[3]; JAK2, [Compound] 123 nM
  Signal (qPCR): 2.08e-6 and 2e-6
[3]; JAK2, [Compound] 370 nM
  Signal (qPCR): 1.2e-6
[3]; JAK2, [Compound] 3330 nM
  Signal (qPCR): 1.6e-7 and 1.8e-7
[3]; JAK2, [Compound] 10000 nM
  Signal (qPCR): 4e-8
